{"source": "patent US8772499B2", "about": "“TRPV3 modulators” (AbbVie Inc., priority 2011, dated 2014)", "key": {"[1]": {"assay": "In vitro rat microsomal stability assay", "type": "in vitro ADME, rat (Sprague-Dawley)", "summary_of_the_method": "(§1)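 Metabolic stability measured in Sprague-Dawley rat or human liver microsomes at 37 °C. Reactions supplemented with NADPH.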"}, "[2]": {"assay": "In vitro human microsomal stability assay", "type": "in vitro ADME", "summary_of_the_method": "as §1"}, "human TRPV3": {"biological_target": "T1, human TRPV3 (Homo sapiens, UniProt Q8NET8)", "T1 construct": "expressed in transfected cells", "T1 sequence (Q8NET8 1-790)": "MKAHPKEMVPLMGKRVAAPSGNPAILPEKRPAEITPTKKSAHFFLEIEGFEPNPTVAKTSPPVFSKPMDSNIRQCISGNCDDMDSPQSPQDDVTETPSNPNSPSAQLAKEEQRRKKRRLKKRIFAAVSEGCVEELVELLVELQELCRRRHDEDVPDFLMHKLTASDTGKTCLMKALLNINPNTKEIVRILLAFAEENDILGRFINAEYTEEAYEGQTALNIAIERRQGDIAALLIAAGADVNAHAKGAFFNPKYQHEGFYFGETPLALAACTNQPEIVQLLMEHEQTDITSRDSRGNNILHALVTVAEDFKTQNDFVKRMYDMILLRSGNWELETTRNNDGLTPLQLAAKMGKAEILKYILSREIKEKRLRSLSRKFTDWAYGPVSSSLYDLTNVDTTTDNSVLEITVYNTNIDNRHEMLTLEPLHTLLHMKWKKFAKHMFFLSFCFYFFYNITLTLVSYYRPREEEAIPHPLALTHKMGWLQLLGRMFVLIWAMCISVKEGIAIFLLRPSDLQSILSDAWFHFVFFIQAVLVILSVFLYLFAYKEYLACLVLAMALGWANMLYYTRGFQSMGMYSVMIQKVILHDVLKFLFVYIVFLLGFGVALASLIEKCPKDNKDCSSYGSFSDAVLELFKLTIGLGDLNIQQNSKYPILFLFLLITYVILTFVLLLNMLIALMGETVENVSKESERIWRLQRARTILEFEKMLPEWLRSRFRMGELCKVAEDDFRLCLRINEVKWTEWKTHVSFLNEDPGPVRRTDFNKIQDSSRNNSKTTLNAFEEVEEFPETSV", "assay": "In vitro antagonism of recombinant human TRPV3 activation (FLIPR Tetra calcium assay)", "type": "cell-based", "conditions": "HEK293 cells stably expressing human TRPV3, agonist 2-APB at 80 μM", "summary_of_the_method": "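HEK293 cells stably expressing human TRPV3, loaded with Calcium-4 dye for 90–120 min, received compound in DPBS, then 80 μM 2-APB (EC80) 3 min later. Max-minus-min fluorescence expressed as % of 2-APB response without antagonist; IC50 values mostly averages of n≥2 runs.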"}, "[3]": {"conditions": "Sprague-Dawley, rat, microsomes, 0.5 h, 0.5 μM, pH 7.4"}, "[4]": {"conditions": "human, microsomes, 0.5 h, 0.5 μM, pH 7.4"}, "[5]": {"conditions": "actual measured value shown parenthetically, in most cases average of at least two runs, read-out: IC50"}, "[6]": {"conditions": "reported range, read-out: IC50 (range class)"}}, "note": "Where two headings read alike, the source gives them in different places."}
{"molecule": "CN1CC(c2ccc(C(F)(F)F)cc2)(C(O)c2ccccn2)C1", "note": "(stereo not shown) [Example 155, {1-methyl-3-[4-(trifluoromethyl)phenyl]azetidin-3-yl}(pyridin-2-yl)-methanol]", "values": [{"measurement": "RAT MICROSOMAL STABILITY (% REMAINING AFTER 30 MINUTES)", "setting": "[1]; [3]", "result": 76, "unit": "%"}, {"measurement": "HUMAN MICROSOMAL STABILITY (% REMAINING AFTER 30 MINUTES)", "setting": "[2]; [4]", "result": ">85", "unit": "%"}, {"measurement": "IC50", "setting": "human TRPV3; [5]", "result": 17, "unit": "µM"}]}
{"molecule": "CC(C)(C)OC(=O)N1CCC(c2ccc(C(F)(F)F)cc2)(C(O)c2ccccn2)CC1", "note": "(stereo not shown) [Example 156, tert-butyl 4-[hydroxy(pyridin-2-yl)methyl]-4-[4-(trifluoromethyl)phenyl]-piperidine-1-carboxylate]", "values": [{"measurement": "RAT MICROSOMAL STABILITY (% REMAINING AFTER 30 MINUTES)", "setting": "[1]; [3]", "result": 0.08, "unit": "%"}, {"measurement": "HUMAN MICROSOMAL STABILITY (% REMAINING AFTER 30 MINUTES)", "setting": "[2]; [4]", "result": 26, "unit": "%"}, {"measurement": "IC50", "setting": "human TRPV3; [5]", "result": "> 20", "unit": "µM"}, {"measurement": "IC50", "setting": "human TRPV3; [6]", "result": "> 20", "unit": "µM"}]}
{"molecule": "CC(C)(C)OC(=O)N1CCC(c2ccc(OC(F)(F)F)cc2)(C(O)c2ccccn2)CC1", "note": "(stereo not shown) [Example 157, tert-butyl 4-[hydroxy(pyridin-2-yl)methyl]-4-[4-(trifluoromethoxy)phenyl]-piperidine-1-carboxylate]", "values": [{"measurement": "RAT MICROSOMAL STABILITY (% REMAINING AFTER 30 MINUTES)", "setting": "[1]; [3]", "result": 0.93, "unit": "%"}, {"measurement": "HUMAN MICROSOMAL STABILITY (% REMAINING AFTER 30 MINUTES)", "setting": "[2]; [4]", "result": 28, "unit": "%"}, {"measurement": "IC50", "setting": "human TRPV3; [5]", "result": "> 20", "unit": "µM"}, {"measurement": "IC50", "setting": "human TRPV3; [6]", "result": "> 20", "unit": "µM"}]}
{"molecule": "CC(C)(C)OC(=O)N1CCC(c2cccc(OC(F)(F)F)c2)(C(O)c2ccccn2)CC1", "note": "(stereo not shown) [Example 158, tert-butyl 4-[hydroxy(pyridin-2-yl)methyl]-4-[3-(trifluoromethoxy)phenyl]-piperidine-1-carboxylate]", "values": [{"measurement": "RAT MICROSOMAL STABILITY (% REMAINING AFTER 30 MINUTES)", "setting": "[1]; rat liver microsomes (Sprague-Dawley), 0.5 μM substrate, 0.25 mg/mL microsomal protein, pH 7.4, 37° C., NADPH, 30 minutes", "result": 0.04, "unit": "%"}, {"measurement": "HUMAN MICROSOMAL STABILITY (% REMAINING AFTER 30 MINUTES)", "setting": "[2]; human liver microsomes, 0.5 μM substrate, 0.25 mg/mL microsomal protein, pH 7.4, 37° C., NADPH, 30 minutes", "result": 3.7, "unit": "%"}, {"measurement": "IC50", "setting": "human TRPV3; [5]", "result": "> 20", "unit": "µM"}, {"measurement": "IC50", "setting": "human TRPV3; [6]", "result": "> 20", "unit": "µM"}]}
{"molecule": "O[C@@H](c1ccccn1)C1(c2ccc(OC(F)(F)F)cc2)CC(F)(F)C1", "note": "[Example 159, (R)-{3,3-difluoro-1-[4-(trifluoromethoxy)phenyl]cyclobutyl}(pyridin-2-yl)-methanol]", "values": [{"measurement": "RAT MICROSOMAL STABILITY (% REMAINING AFTER 30 MINUTES)", "setting": "[1]; [3]", "result": 65, "unit": "%"}, {"measurement": "HUMAN MICROSOMAL STABILITY (% REMAINING AFTER 30 MINUTES)", "setting": "[2]; [4]", "result": 45, "unit": "%"}, {"measurement": "IC50", "setting": "human TRPV3; [5]", "result": 1.98, "unit": "µM"}]}
{"molecule": "O=C1CC(c2ccc(C(F)(F)F)cc2)(C(O)c2ccccn2)C1", "note": "(stereo not shown) [Example 160, 3-[hydroxy(pyridin-2-yl)methyl]-3-[4-(trifluoromethyl)phenyl]-cyclobutanone]", "values": [{"measurement": "RAT MICROSOMAL STABILITY (% REMAINING AFTER 30 MINUTES)", "setting": "[1]; [3]", "result": 60, "unit": "%"}, {"measurement": "HUMAN MICROSOMAL STABILITY (% REMAINING AFTER 30 MINUTES)", "setting": "[2]; [4]", "result": ">85", "unit": "%"}, {"measurement": "IC50", "setting": "human TRPV3; [5]", "result": 6.11, "unit": "µM"}]}
{"molecule": "OC(c1ccccn1)C1(c2ccc(C(F)(F)F)cc2)CC2(C1)OCCO2", "note": "(stereo not shown) [Example 161, pyridin-2-yl{2-[4-(trifluoromethyl)phenyl]-5,8-dioxaspiro[3.4]oct-2-yl}-methanol]", "values": [{"measurement": "RAT MICROSOMAL STABILITY (% REMAINING AFTER 30 MINUTES)", "setting": "[1]; [3]", "result": "<0.01", "unit": "%"}, {"measurement": "HUMAN MICROSOMAL STABILITY (% REMAINING AFTER 30 MINUTES)", "setting": "[2]; [4]", "result": 61, "unit": "%"}, {"measurement": "IC50", "setting": "human TRPV3; [5]", "result": 3.27, "unit": "µM"}]}
{"molecule": "OC(c1ccccn1)C1(C2CCCCC2)CCC1", "note": "(stereo not shown) [Example 162, (1-cyclohexylcyclobutyl)(pyridin-2-yl)methanol]", "values": [{"measurement": "RAT MICROSOMAL STABILITY (% REMAINING AFTER 30 MINUTES)", "setting": "[1]; [3]", "result": "<0.01", "unit": "%"}, {"measurement": "HUMAN MICROSOMAL STABILITY (% REMAINING AFTER 30 MINUTES)", "setting": "[2]; [4]", "result": 0.02, "unit": "%"}, {"measurement": "IC50", "setting": "human TRPV3; [5]", "result": 3.88, "unit": "µM"}]}
{"molecule": "OC(c1ccccn1)C1(C2CCCC2)CCC1", "note": "(stereo not shown) [Example 163, (1-cyclopentylcyclobutyl)(pyridin-2-yl)methanol]", "values": [{"measurement": "RAT MICROSOMAL STABILITY (% REMAINING AFTER 30 MINUTES)", "setting": "[1]; [3]", "result": "<0.01", "unit": "%"}, {"measurement": "HUMAN MICROSOMAL STABILITY (% REMAINING AFTER 30 MINUTES)", "setting": "[2]; [4]", "result": 0.11, "unit": "%"}, {"measurement": "IC50", "setting": "human TRPV3; [5]", "result": 4.9, "unit": "µM"}]}
{"molecule": "OC(C1CCc2cccnc21)C1(c2ccc(Cl)c(Cl)c2)CCC1", "note": "(stereo not drawn) [Example 167, (anti)-[1-(3,4-dichlorophenyl)cyclobutyl][6,7-dihydro-5H-cyclopenta[b]-pyridin-7-yl]methanol]", "values": [{"measurement": "RAT MICROSOMAL STABILITY (% REMAINING AFTER 30 MINUTES)", "setting": "[1]; [3]", "result": "<0.01", "unit": "%"}, {"measurement": "HUMAN MICROSOMAL STABILITY (% REMAINING AFTER 30 MINUTES)", "setting": "[2]; [4]", "result": 9.5, "unit": "%"}, {"measurement": "IC50", "setting": "human TRPV3; [5]", "result": "> 20", "unit": "µM"}, {"measurement": "IC50", "setting": "human TRPV3; [6]", "result": "> 20", "unit": "µM"}]}
{"molecule": "OC(C1CCc2cccnc21)C1(c2ccc(Cl)c(Cl)c2)CCC1", "note": "(stereo not drawn) [Example 168, (syn)-[1-(3,4-dichlorophenyl)cyclobutyl][6,7-dihydro-5H-cyclopenta[b]-pyridin-7-yl]methanol]", "values": [{"measurement": "RAT MICROSOMAL STABILITY (% REMAINING AFTER 30 MINUTES)", "setting": "[1]; [3]", "result": "<0.01", "unit": "%"}, {"measurement": "HUMAN MICROSOMAL STABILITY (% REMAINING AFTER 30 MINUTES)", "setting": "[2]; [4]", "result": 5.6, "unit": "%"}, {"measurement": "IC50", "setting": "human TRPV3; [5]", "result": 9.14, "unit": "µM"}]}
